Reference: article doi:10.1101/2023.11.24.568596v1 (biorxiv, 2023)
Each block holds one compound with its values, some of them ahead of it.

How the values were obtained:
Conditions in all cases: binder
CaMKK2 = CaMKK2 (Homo sapiens, UniProt Q96RR4)
CDK2 = CDK2 (Homo sapiens, UniProt P24941)
MAP2K4 = target: T1, MAP2K4 (Homo sapiens, UniProt P45985)
T1 sequence (P45985 1-399): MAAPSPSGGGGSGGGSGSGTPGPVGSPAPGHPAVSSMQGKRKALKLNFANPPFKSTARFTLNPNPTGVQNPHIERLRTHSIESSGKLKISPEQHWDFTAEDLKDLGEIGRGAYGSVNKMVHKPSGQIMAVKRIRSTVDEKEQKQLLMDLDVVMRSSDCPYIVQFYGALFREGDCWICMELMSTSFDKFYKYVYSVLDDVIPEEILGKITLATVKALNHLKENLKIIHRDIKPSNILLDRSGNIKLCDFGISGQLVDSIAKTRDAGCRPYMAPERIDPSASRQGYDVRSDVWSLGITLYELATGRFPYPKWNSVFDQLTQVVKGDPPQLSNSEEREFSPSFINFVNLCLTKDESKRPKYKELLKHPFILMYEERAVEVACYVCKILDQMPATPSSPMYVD

BRD4 = BRD4 (Homo sapiens, UniProt O60885)
BMX = target: T2, BMX (Homo sapiens, UniProt P51813)
T2 sequence (P51813 1-675): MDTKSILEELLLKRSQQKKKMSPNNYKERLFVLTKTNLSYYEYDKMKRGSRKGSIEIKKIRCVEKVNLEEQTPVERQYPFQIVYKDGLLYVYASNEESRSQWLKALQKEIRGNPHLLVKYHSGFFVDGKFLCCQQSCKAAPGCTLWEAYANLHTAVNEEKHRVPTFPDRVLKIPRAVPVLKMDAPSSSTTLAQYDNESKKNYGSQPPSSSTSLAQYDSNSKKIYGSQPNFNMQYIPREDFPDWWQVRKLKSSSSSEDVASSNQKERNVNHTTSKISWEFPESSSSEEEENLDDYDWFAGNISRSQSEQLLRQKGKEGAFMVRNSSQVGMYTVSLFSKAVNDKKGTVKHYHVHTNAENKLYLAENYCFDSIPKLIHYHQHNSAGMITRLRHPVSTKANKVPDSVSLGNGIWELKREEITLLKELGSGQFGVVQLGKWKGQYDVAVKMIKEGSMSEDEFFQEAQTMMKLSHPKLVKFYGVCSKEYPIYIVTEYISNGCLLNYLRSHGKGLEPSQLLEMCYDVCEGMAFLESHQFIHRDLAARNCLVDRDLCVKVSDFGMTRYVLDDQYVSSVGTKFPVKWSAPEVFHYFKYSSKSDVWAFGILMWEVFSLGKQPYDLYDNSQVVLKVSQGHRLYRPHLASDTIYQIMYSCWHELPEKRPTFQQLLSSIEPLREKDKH

GAK = target: T3, GAK (Homo sapiens, UniProt O14976)
T3 sequence (O14976 1-1311): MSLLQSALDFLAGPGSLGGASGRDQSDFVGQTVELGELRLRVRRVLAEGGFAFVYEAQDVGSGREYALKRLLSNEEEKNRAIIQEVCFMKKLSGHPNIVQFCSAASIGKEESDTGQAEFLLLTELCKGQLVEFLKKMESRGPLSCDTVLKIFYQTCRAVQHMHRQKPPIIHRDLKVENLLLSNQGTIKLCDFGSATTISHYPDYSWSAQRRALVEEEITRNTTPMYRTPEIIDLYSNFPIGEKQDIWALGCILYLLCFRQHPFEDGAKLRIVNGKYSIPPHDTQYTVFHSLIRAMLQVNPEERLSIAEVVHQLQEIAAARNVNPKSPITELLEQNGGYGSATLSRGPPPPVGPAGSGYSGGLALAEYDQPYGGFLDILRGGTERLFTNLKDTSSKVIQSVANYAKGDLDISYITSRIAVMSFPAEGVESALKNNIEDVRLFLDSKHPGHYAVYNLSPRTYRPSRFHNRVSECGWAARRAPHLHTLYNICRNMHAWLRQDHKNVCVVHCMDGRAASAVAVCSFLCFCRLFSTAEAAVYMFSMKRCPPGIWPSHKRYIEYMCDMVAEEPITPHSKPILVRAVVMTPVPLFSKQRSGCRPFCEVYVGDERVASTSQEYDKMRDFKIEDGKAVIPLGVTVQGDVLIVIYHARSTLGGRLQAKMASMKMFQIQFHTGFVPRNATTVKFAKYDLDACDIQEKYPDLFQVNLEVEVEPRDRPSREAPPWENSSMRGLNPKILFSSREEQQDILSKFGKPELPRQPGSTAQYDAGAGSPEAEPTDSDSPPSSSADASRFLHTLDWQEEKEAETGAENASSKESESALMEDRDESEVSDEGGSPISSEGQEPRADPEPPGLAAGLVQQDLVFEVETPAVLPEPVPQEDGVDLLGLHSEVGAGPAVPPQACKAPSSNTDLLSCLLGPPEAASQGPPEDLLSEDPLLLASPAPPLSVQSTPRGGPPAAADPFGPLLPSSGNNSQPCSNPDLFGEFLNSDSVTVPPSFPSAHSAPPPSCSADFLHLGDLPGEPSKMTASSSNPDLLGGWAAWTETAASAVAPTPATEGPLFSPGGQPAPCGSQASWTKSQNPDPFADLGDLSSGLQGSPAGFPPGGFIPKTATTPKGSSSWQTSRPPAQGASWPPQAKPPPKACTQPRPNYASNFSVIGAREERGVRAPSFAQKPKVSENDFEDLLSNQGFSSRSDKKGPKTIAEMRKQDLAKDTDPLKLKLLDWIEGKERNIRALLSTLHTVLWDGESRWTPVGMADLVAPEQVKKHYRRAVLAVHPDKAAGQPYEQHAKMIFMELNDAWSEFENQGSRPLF

ABL1 = ABL1 (Homo sapiens, UniProt P00519)
Chain of ABL1 (P00519 whole entry): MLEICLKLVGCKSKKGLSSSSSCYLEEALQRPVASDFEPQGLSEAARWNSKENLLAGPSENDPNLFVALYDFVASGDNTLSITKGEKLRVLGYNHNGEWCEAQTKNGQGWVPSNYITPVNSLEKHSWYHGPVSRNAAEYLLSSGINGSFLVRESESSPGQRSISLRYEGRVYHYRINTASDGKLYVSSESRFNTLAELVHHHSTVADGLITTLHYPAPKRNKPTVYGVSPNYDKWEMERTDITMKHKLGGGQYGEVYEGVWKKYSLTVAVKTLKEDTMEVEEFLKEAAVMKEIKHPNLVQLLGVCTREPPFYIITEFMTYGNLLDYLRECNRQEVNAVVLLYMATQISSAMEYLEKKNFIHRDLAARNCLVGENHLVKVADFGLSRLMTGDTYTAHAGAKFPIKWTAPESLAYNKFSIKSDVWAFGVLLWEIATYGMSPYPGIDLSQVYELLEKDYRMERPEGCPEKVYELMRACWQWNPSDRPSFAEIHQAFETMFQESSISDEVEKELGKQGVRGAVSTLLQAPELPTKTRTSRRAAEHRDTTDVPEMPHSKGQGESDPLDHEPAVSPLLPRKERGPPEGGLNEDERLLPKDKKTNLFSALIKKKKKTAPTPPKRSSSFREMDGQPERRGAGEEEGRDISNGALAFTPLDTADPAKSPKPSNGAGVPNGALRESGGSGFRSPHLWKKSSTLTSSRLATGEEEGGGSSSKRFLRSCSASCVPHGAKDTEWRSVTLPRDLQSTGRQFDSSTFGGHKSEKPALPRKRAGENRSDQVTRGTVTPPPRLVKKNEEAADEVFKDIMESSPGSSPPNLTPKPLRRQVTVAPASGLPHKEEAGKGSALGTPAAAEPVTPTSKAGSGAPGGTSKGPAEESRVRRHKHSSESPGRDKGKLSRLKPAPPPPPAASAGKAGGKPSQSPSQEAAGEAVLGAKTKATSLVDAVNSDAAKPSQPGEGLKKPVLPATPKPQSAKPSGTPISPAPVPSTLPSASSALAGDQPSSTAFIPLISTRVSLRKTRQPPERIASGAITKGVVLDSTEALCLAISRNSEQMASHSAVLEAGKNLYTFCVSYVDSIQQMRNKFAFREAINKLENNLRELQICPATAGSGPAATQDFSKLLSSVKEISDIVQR

DYRK1A = DYRK1A (Homo sapiens, UniProt Q13627)
CK2a1 = CK2a1 (Homo sapiens, UniProt P68400)
Chain of CK2a1 (P68400 whole entry): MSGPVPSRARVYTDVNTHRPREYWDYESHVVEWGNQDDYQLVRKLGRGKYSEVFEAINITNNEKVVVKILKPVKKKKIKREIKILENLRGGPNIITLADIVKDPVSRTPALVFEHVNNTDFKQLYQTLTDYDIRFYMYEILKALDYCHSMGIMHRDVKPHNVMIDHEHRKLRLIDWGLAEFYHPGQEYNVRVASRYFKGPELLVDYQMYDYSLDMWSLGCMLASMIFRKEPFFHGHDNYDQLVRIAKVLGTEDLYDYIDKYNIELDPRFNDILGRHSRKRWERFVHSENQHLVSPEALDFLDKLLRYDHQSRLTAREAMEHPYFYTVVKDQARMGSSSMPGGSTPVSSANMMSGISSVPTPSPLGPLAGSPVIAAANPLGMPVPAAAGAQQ

Chain of CaMKK2 (Q96RR4 whole entry): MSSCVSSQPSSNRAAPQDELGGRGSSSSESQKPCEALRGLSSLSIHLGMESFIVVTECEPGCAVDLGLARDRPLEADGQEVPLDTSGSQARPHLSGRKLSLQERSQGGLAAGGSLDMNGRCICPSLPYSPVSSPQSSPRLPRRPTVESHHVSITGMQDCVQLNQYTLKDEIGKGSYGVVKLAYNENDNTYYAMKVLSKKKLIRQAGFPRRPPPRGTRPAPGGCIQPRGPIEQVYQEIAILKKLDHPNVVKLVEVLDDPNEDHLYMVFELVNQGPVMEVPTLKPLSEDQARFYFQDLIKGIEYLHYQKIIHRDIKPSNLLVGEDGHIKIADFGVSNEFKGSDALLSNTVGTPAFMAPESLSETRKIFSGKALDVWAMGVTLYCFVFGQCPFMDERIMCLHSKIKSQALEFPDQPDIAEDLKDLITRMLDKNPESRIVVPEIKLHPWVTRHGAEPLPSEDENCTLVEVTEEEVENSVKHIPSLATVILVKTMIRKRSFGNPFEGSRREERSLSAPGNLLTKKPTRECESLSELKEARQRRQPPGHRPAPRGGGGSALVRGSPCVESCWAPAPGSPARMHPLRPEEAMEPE

ΔTm MR30 (27) (CaMKK2): 0.5 °C
ΔTm MR30 (27) (CDK2): 1.4 °C
ΔTm MR30 (27) (MAP2K4): 5.2 °C
ΔTm MR30 (27) (BRD4): -3.9 °C
ΔTm MR30 (27) (BMX): 1.7 °C
ΔTm MR30 (27) (GAK): 4.3 °C
ΔTm MR30 (27) (ABL1): 3.0 °C
ΔTm MR30 (27) (DYRK1A): -1.2 °C
ΔTm MR30 (27) (CK2a1): -0.4 °C
Structure (SMILES): Cc1cccc(-c2ccc(-c3cc4cnc(NCCCN5CCCC5=O)nc4n(CCCCN)c3=O)c(Cl)c2)n1 [compound 27, MR30]

ΔTm 28 (CaMKK2): 2.4 °C
ΔTm 28 (CDK2): -0.2 °C
ΔTm 28 (MAP2K4): 11.0 °C
ΔTm 28 (BRD4): -3.7 °C
ΔTm 28 (BMX): 3.1 °C
ΔTm 28 (GAK): 9.4 °C
ΔTm 28 (ABL1): 6.9 °C
ΔTm 28 (DYRK1A): 0.2 °C
ΔTm 28 (CK2a1): -0.6 °C
Structure (SMILES): Cc1cccc(-c2ccc(-c3cc4cnc(Nc5cc(C(F)(F)F)ccc5C)nc4n(CCCCN)c3=O)c(Cl)c2)n1 [compound 28, 8-(4-Aminobutyl)-6-(2-chloro-4-(6-methylpyridin-2-yl)phenyl)-2-((2-methyl-5-(trifluoromethyl)phenyl)amino)pyrido[2,3-d]pyrimidin-7(8H)-one]

ΔTm 29 (CaMKK2): 0.7 °C
ΔTm 29 (CDK2): 0.9 °C
ΔTm 29 (MAP2K4): 3.5 °C
ΔTm 29 (BRD4): -2.2 °C
ΔTm 29 (BMX): 2.1 °C
ΔTm 29 (GAK): 4.2 °C
ΔTm 29 (ABL1): 4.0 °C
ΔTm 29 (DYRK1A): -0.3 °C
ΔTm 29 (CK2a1): -0.2 °C
Structure (SMILES): Cc1cccc(-c2ccc(-c3cc4cnc(NCCCN5CCNCC5)nc4n(CCCCN)c3=O)c(Cl)c2)n1 [compound 29, 8-(4-Aminobutyl)-6-(2-chloro-4-(6-methylpyridin-2-yl)phenyl)-2-((3-(piperazin-1-yl)propyl)amino)pyrido[2,3-d]pyrimidin-7(8H)-one]

ΔTm 30 (CaMKK2): 7.5 °C
ΔTm 30 (CDK2): 4.8 °C
ΔTm 30 (MAP2K4): 9.7 °C
ΔTm 30 (BRD4): -2.4 °C
ΔTm 30 (BMX): 6.6 °C
ΔTm 30 (GAK): 13.2 °C
ΔTm 30 (ABL1): 10.3 °C
ΔTm 30 (DYRK1A): -1.8 °C
ΔTm 30 (CK2a1): -1.1 °C
Structure (SMILES): Cc1cccc(-c2ccc(-c3cc4cnc(Nc5ccc(CCCO)cc5)nc4n(CCCCN)c3=O)c(Cl)c2)n1 [compound 30, 8-(4-Aminobutyl)-6-(2-chloro-4-(6-methylpyridin-2-yl)phenyl)-2-((4-(3-hydroxypropyl)phenyl)amino)pyrido[2,3-d]pyrimidin-7(8H)-one]

ΔTm 31 (CaMKK2): 5.2 °C
ΔTm 31 (CDK2): 6.7 °C
ΔTm 31 (MAP2K4): 10.8 °C
ΔTm 31 (BRD4): -1.6 °C
ΔTm 31 (BMX): 7.0 °C
ΔTm 31 (GAK): 13.3 °C
ΔTm 31 (ABL1): 10.6 °C
ΔTm 31 (DYRK1A): -1.0 °C
ΔTm 31 (CK2a1): 0.0 °C
Structure (SMILES): Cc1cccc(-c2ccc(-c3cc4cnc(Nc5ccc(O)cc5)nc4n(CCCCN)c3=O)c(Cl)c2)n1 [compound 31, 8-(4-Aminobutyl)-6-(2-chloro-4-(6-methylpyridin-2-yl)phenyl)-2-((4-hydroxyphenyl)amino) pyrido[2,3-d]pyrimidin-7(8H)-one]

ΔTm 32 (CaMKK2): 6.8 °C
ΔTm 32 (CDK2): 5.3 °C
ΔTm 32 (MAP2K4): 10.8 °C
ΔTm 32 (BRD4): -2.7 °C
ΔTm 32 (BMX): 7.3 °C
ΔTm 32 (GAK): 13.3 °C
ΔTm 32 (ABL1): 10.8 °C
ΔTm 32 (DYRK1A): -0.4 °C
ΔTm 32 (CK2a1): -0.3 °C
Structure (SMILES): Cc1cccc(-c2ccc(-c3cc4cnc(Nc5ccc(C)c(O)c5)nc4n(CCCCN)c3=O)c(Cl)c2)n1 [compound 32, 8-(4-Aminobutyl)-6-(2-chloro-4-(6-methylpyridin-2-yl)phenyl)-2-((3-hydroxy-4-methylphenyl)amino)pyrido[2,3-d]pyrimidin-7(8H)-one]
